Here are results for 14 molecules from patent US4156731A, “Heterocyclic oxime compounds and carbamoyloxime derivatives” (priority 1976, dated 1979).

What all share (format): in vivo
Common to all, as to set-up: key: A: Excellent control; B: Partial control; C: No control

Assay [1] has as its system southern armyworm (Prodenia Eridania, (Cram.)). As to the kind of experiment: Southern Armyworm Leaf Spray Test. The note with it: larvae, 500 ppm leaf spray, three days. The method, then: (§1) Selected species of the new compounds were evaluated to determine their pesticidal activity against mites and certain insects, including anaphid, a caterpillar, a beetle and a fly.
(§2) Suspensions of the test compounds were prepared by dissolving one gram of compound in 50 milliliters of acetone in which had been dissolved 0.1 gram (10 percent of the weight of compound) of an alkylphenoxy polyethoxyethanol surfactant, as an emulsifying or dispersing agent. The resulting solution was mixed into 150 milliliters of water to give roughly 200 milliliters of a suspension containing the compound in finely divided form. The thus-prepared stock suspension contained 0.5 percent by weight of test compound. The test concentrations in parts per million by weight employed in the tests described hereinbelow were obtained by appropriate dilutions of the stock suspension with water. The test procedures were as follows:
Southern Armyworm Leaf Spray Test
Larvae of the southern armyworm (Prodenia Eridania, (Cram.), reared on Tendergreen bean plants at a temperature of 80°±5° F. and a relative humidity of 50±5 per cent, constituted the test insects.
The test compounds were formulated by diluting the stock suspension with water to give a suspension containing 500 parts of test compound per million parts of final formulation. Potted Tendergreen bean plants of standard height and age were placed on a revolving turntable and sprayed with […] of test compound formulation by use of a DeVilbiss spray gun set at 10 psig. air pressure.
This application, which lasted 25 seconds, was sufficient to wet plants to run-off. As a control, 100-110 milliliters of a water-acetone-emulsifier solution containing no test compound were also sprayed on infested plants. When dry, the paired leaves were separated and each one was placed in a 9 centimeter Petric dish lined with moistened filter paper. Five randomly selected larvae were introduced into each dish and the dishes were closed. The closed dishes were labeled and held at 80°-85° F. for three days. Although the larvae could easily consume the whole leaf within twenty-four hours, no more food was added. Larvae which were unable to move the length of the body, even upon stimulation by prodding, were considered dead. Per cent mortality was recorded for various concentration levels.
(§3) In these tests the pesticidal activity of the compounds against aphid, mite, Southern Armyworm, Mexican Bean Beetle, and house fly was rated as follows: […]

For assay [2], the system named is Mexican bean beetle (Epilachna varivestis, Muls.). Description: Mexican Bean Beetle Leaf Spray Test. As to conditions: fourth instar larvae, 500 ppm leaf spray, three days. The method, then: as §1, §2
Mexican Bean Beetle Leaf Spray Test
Fourth instar larvae of the Mexican bean beetle (Epilachna varivestis, Muls.), reared on Tendergreen bean plants at a temperature of 80°±5° F. and 50±5 per cent relative humidity, were the test insects.
The test compounds were formulated by diluting the stock suspension with water to give a suspension containing 500 parts of test compound per million parts of final formulation. Potted Tendergreen bean plants of standard height and age were placed on a revolving turntable and sprayed with 100-110 milliliters of test compound formulation by use of DeVilbiss spray gun set at 10 psig air pressure. This application, which lasted 25 seconds, was sufficient to wet plants to run-off. As a control, 100-110 milliliters of a water-acetone-emulsifier solution containing no test compound were also sprayed on infested plants. When dry, the paired leaves were separated and each was placed in a 9 centimeter Petri dish lined with moistened filter paper. Five randomly selected larvae were introduced into each dish, and the dishes were closed. The closed dishes were labeled and held at a temperature of […]. for three days. Although the larvae could easily consume the leaf within 24 to 48 hours, no more food was added. Larvae which were unable to move the length of the body, even upon stimulation, were considered dead.
as §3

Assay [3] deals with bean aphid (Aphis fabae Scop.). As to the kind of experiment: Bean Aphid Foliage Spray Test. As to conditions: 500 ppm foliage spray, 24 hour holding period. Here is the method: as §1, §2
Bean Aphid Foliage Spray Test
Adults and nymphal stages of the bean aphid (Aphis fabae Scop.) reared on potted dwarf nasturtium plants at 65°-70° F. and 50-70 per cent relative humidity, constituted the test insects. For testing purposes, the number of aphids per pot was standardized to 100-150 by trimming plants containing excess aphids.
The test compounds were formulated by diluting the stock suspension with water to give a suspension containing 500 parts of test compound per million parts of final formulation.
The potted plants (one pot per compound tested) infested with 100-150 aphids, were placed on a revolving turntable and sprayed with 100-110 milliliters of test compound formulation by use of a DeVilbiss spray gun set at 40 psig. air pressure. This application, which lasted 25 seconds, was sufficient to wet the plants to run-off. As a control, 100-110 milliliters of a water-acetone-emulsifier solution containing no test compound were also sprayed on infested plants. After spraying, the pots were placed on their sides on a sheet of white standard mimeograph paper which had been previously ruled to facilitate counting. Temperature and humidity in the test room during the 24 hour holding period were 65°-70° F. and 50-70 per cent, respectively. Aphids which fell into the paper and were unable to remain standing after being uprighted were considered dead. Aphids remaining on the plants wre observed closely for movement and those which were unable to move the length of the body upon stimulator by prodding were considered dead. Per cent mortality was recorded for various concentration levels.
as §3

In assay [4] the test system is house flies (Musca domestica, L.). As to the kind of experiment: Fly Bait Test. The note with it: adults, 500 ppm in sugar bait, twenty four hours. The method, then: as §1, §2
Four to six day old adult house flies (Musca domestica, L.) reared according to the specifications of the Chemical Specialities Manufacturing Association (Blue Book, McNair-Dorland Co., NY., 1954; pages 234-244, 261) under controlled conditions of 80°±5° F. and 50±5 per cent relative humidity, were the test insects. The flies were immobilized by anesthetizing with carbon dioxide and twenty five immobilized individuals, males and females, were transferred to a cage consisting of a standard food stainer about five inches in diameter which was inverted over a wrapping-paper-covered surface. The test compounds were formulated by diluting the stock suspension with a 10 per cent (by weight) sugar solution to give a suspension containing 500 parts of test compound per million parts of final formulation, by weight. Ten milliliters of the test formulation were added to a souffle cup containing a one inch square of an absorbent cotton pad. This bait cup was introduced and centered on the blotting paper under the food strainer prior to admitting the anesthetized flies. The caged flies were allowed to feed on the bait for twenty four hours, at a temperature of 80°±5° F. and the relative humidity of 50±5 per cent.
as §3

In assay [5] the test system is two spotted mite (Tetranychus urticae Koch). Description: Mite Foliage Spray Test. As to conditions: 500 ppm foliage spray, six days. The method, then: as §1, §2
Adults and nymphal stages of the two spotted mite (Tetranychus urticae Koch), reared on Tendergreen bean plants at 80±5 per cent relative humidity, were the test organisms. Infested leaves from a stock culture were placed on the primary leaves of two bean plants six to eight inches in height, growing in a two-and-a-half inch clay pot. 150-200 mites, a sufficient number for testing, transferred from the excised leaves to the fresh plants in a period of twenty four hours. Following the twenty four hour transfer period, the excised leaves were removed from the infested plants. The test compounds were formulated by diluting the stock suspension with water to give a suspension with water to give a suspension containing 500 parts of test compound per million parts of final formulation. The potted plants (one pot per compound) were placed on a revolving turntable and sprayed with 100-110 milliliters of test compound formulation by use of a DeVilbiss spray gun set at 40 psig. air pressure. This application, which lasted for 25 seconds, was sufficient to wet the plants to run-off. As a control, 100-110 milliliters of a water solution containing acetone and emulsifier in the same concentrations as the test compound formulation, but containing no test compound, were also sprayed on infested plants. The sprayed plants were held at 80±5 per cent relative humidity for six days, after which a mortality count of motile forms were made. Microscopic examination for motile forms was made on the leaves of the test plants. Any individual which was capable of locomotion upon prodding, was considered living.
as §3

As to `CNC(=O)ON=C1SC(=CC(C)=O)SC1(C)C` [LXVIII], the “Southern Armyworm pesticidal activity rating” value in assay [1] is “A”. Further, the “Mexican Bean Beetle pesticidal activity rating” value in assay [2] is “A”. Besides, the “Bean Aphid pesticidal activity rating” value in assay [3] is given as “A”. In addition, in assay [4], the “House-Fly pesticidal activity rating” value is on record as “A”. The “Mite pesticidal activity rating” value in assay [5] is on record as “C”.
As to `CNC(=O)ON=C1SC(=C[N+](=O)[O-])SC1(C)C` [LXVII], in assay [1], the “Southern Armyworm pesticidal activity rating” value is “A”. For the same molecule, in assay [2], the “Mexican Bean Beetle pesticidal activity rating” value is “A”. In addition, in assay [3], the “Bean Aphid pesticidal activity rating” value is “B”. Also, in assay [4], the “House-Fly pesticidal activity rating” value is reported as “A”. Further, the “Mite pesticidal activity rating” value in assay [5] is “C”.
Consider `CNC(=O)ON=C1SC(=C(C#N)c2ccccc2)SC1(C)C` [LXVI], for which, in assay [1], the “Southern Armyworm pesticidal activity rating” value is “C”. Also, in assay [2], the “Mexican Bean Beetle pesticidal activity rating” value is listed as “B”. In addition, the “Bean Aphid pesticidal activity rating” value in assay [3] is “C”. Also, the “House-Fly pesticidal activity rating” value in assay [4] was “C”. Also, the “Mite pesticidal activity rating” value in assay [5] is listed as “C”.
On to `CCOC(=O)C(C#N)=C1SC(=NOC(=O)N(C)SC(Cl)(Cl)Cl)C(C)(C)S1` [LXV], for which the “Southern Armyworm pesticidal activity rating” value in assay [1] is on record as “C”. Besides, in assay [2], the “Mexican Bean Beetle pesticidal activity rating” value was “A”. In addition, in assay [3], the “Bean Aphid pesticidal activity rating” value was “B”. Moreover, in assay [4], the “House-Fly pesticidal activity rating” value is listed as “A”. The “Mite pesticidal activity rating” value in assay [5] was “C”.
With `CN(Sc1ccc(C(C)(C)C)cc1)C(=O)ON=C1SC(=C(C#N)C#N)SC1(C)C` [LXXIII], in assay [1], the “Southern Armyworm pesticidal activity rating” value is “C”. For the same molecule, the “Mexican Bean Beetle pesticidal activity rating” value in assay [2] is “A”. Also, in assay [3], the “Bean Aphid pesticidal activity rating” value is recorded as “A”. Further, the “House-Fly pesticidal activity rating” value in assay [4] is “C”. Also, in assay [5], the “Mite pesticidal activity rating” value is on record as “B”.
In the case of `CN(SSc1ccc(C(C)(C)C)cc1)C(=O)ON=C1SC(=C(C#N)C#N)SC1(C)C` [LXXII], the “Southern Armyworm pesticidal activity rating” value in assay [1] was “C”. Besides, the “Mexican Bean Beetle pesticidal activity rating” value in assay [2] is “A”. For the same molecule, the “Bean Aphid pesticidal activity rating” value in assay [3] is listed as “A”. Moreover, in assay [4], the “House-Fly pesticidal activity rating” value was “C”. The “Mite pesticidal activity rating” value in assay [5] is “C”.
Turning to `CN(SN1CCOCC1)C(=O)ON=C1SC(=C(C#N)C#N)SC1(C)C` [LXXIV], the “Southern Armyworm pesticidal activity rating” value in assay [1] is reported as “B”. Moreover, the “Mexican Bean Beetle pesticidal activity rating” value in assay [2] is reported as “C”. The “Bean Aphid pesticidal activity rating” value in assay [3] is “A”. The “House-Fly pesticidal activity rating” value in assay [4] is “C”. For the same molecule, the “Mite pesticidal activity rating” value in assay [5] is on record as “C”.
In the case of `CNC(=O)ON=C1SC(=S)SC1(C)C` [LXXI], the “Southern Armyworm pesticidal activity rating” value in assay [1] is reported as “B”. Further, the “Mexican Bean Beetle pesticidal activity rating” value in assay [2] is reported as “A”. The “Bean Aphid pesticidal activity rating” value in assay [3] is recorded as “A”. In assay [4], the “House-Fly pesticidal activity rating” value was “B”. Moreover, the “Mite pesticidal activity rating” value in assay [5] was “B”.
In the case of `CN=C1SC(=NOC(=O)N(C)SN(C)C(=O)ON=C2SC(=NC)SC2(C)C)C(C)(C)S1` [LXXVIII], in assay [1], the “Southern Armyworm pesticidal activity rating” value is “A”. Moreover, in assay [2], the “Mexican Bean Beetle pesticidal activity rating” value is given as “A”. In addition, in assay [3], the “Bean Aphid pesticidal activity rating” value is listed as “A”. Also, the “House-Fly pesticidal activity rating” value in assay [4] is reported as “A”. Moreover, in assay [5], the “Mite pesticidal activity rating” value is “A”.
In the case of `CN(SN(C)C(=O)ON=C1SC(=C(C#N)C#N)SC1(C)C)C(=O)ON=C1SC(=C(C#N)C#N)SC1(C)C` [LXXVII], the “Southern Armyworm pesticidal activity rating” value in assay [1] is given as “C”. Also, the “Mexican Bean Beetle pesticidal activity rating” value in assay [2] is “A”. Further, in assay [3], the “Bean Aphid pesticidal activity rating” value is given as “C”. In addition, the “House-Fly pesticidal activity rating” value in assay [4] is given as “C”. Moreover, in assay [5], the “Mite pesticidal activity rating” value is recorded as “C”.
Consider `CNC(=O)ON=C1CSC(=CC(C)=O)S1` [LXXVI], for which the “Southern Armyworm pesticidal activity rating” value in assay [1] is reported as “C”. In assay [2], the “Mexican Bean Beetle pesticidal activity rating” value was “B”. Moreover, the “Bean Aphid pesticidal activity rating” value in assay [3] is “C”. The “House-Fly pesticidal activity rating” value in assay [4] is “A”. The “Mite pesticidal activity rating” value in assay [5] was “C”.
With `CC(C)C(=O)C(C)(C)SSN(C)C(=O)ON=C1SC(=C(C#N)C#N)SC1(C)C` [LXXV], in assay [1], the “Southern Armyworm pesticidal activity rating” value is “B”. Also, the “Mexican Bean Beetle pesticidal activity rating” value in assay [2] is recorded as “B”. The “Bean Aphid pesticidal activity rating” value in assay [3] is listed as “A”. Further, the “House-Fly pesticidal activity rating” value in assay [4] is “C”. The “Mite pesticidal activity rating” value in assay [5] is given as “A”.
Turning to `CN(SC(Cl)(Cl)Cl)C(=O)ON=C1SC(=NC#N)SC1(C)C` [LXX], the “Southern Armyworm pesticidal activity rating” value in assay [1] is “C”. Besides, in assay [2], the “Mexican Bean Beetle pesticidal activity rating” value is reported as “C”. The “Bean Aphid pesticidal activity rating” value in assay [3] was “C”. In addition, the “House-Fly pesticidal activity rating” value in assay [4] is “C”. Also, in assay [5], the “Mite pesticidal activity rating” value is given as “C”.
On to `Cc1ccc(S(=O)(=O)N=C2SC(=NOC(=O)N(C)SC(Cl)(Cl)Cl)C(C)(C)S2)cc1` [LX], for which the “Southern Armyworm pesticidal activity rating” value in assay [1] is recorded as “B”. Besides, the “Mexican Bean Beetle pesticidal activity rating” value in assay [2] is on record as “B”. For the same molecule, the “Bean Aphid pesticidal activity rating” value in assay [3] was “C”. For the same molecule, the “House-Fly pesticidal activity rating” value in assay [4] is “B”. Further, the “Mite pesticidal activity rating” value in assay [5] is reported as “C”.
